Reference: patent US20110009342A1, “USES OF PDCD5 POLYPEPTIDE FOR TUMOR CHEMOTHERAPY AND ORGAN PROTECTION” (priority 2008, published 2011)
Entries after “also recorded” stand apart in the source; their conditions may differ.

Tests used:
mouse livers [1] = test: Tunel staining of liver paraffin sections of treated K562 xenograft mice; type: in vivo, BALB/c nu/nu mice; conditions: five high power microscope fields
Protocol: Methods: BALB/c nu/nu female mice (6-8 weeks of age) were injected intraperitoneally with cyclophosphamide (CTX) (Jiangsu Hengrui Medicine Co., Ltd.), 2 mg/day per mouse for two days. One day after the second cyclophosphamide injection, 1.5×10^7 of K562 cells were injected subcutaneously into the single armpit of each of the mice. The mice bearing K562 cell xenografts were divided randomly into nine groups (n=6, i.e., six mice in each group) and each of the mice was i.p. treated, respectively, with normal saline, PDCD5, IDR (Sigma Corporation), and IDR plus PDCD5. Normal saline, PDCD5 (200 μg, 400 μg, or 800 μg, i.e., 10 mg/kg, 20 mg/kg, or 40 mg/kg, respectively), IDR (25 μg, i.e., 1.25 mg/kg) and IDR (25 μg, i.e., 1.25 mg/kg) plus PDCD5 (200 μg, 400 μg, or 800 μg, i.e., 10 mg/kg, 20 mg/kg, or 40 mg/kg, respectively) were used for intraperitoneal injection every other day for a total of five treatments. […] At the end of the experiment, mice were killed.
The excised liver of mice after treatment were fixed in 10% neutrally buffered formalin and then embedded in paraffin after dehydration. […] Meanwhile, paraffin sections after Tunel (Roche Inc.) staining were used to observe the apoptosis of experimental mouse livers, and then the number of apoptotic cells was counted in five high-power microscope field for statistical analysis.

mice hearts = test: HE staining of heart paraffin sections of treated K562 xenograft mice; type: in vivo, BALB/c nu/nu mice
Protocol: (§1) Methods: BALB/c nu/nu female mice (6-8 weeks of age) were injected intraperitoneally with cyclophosphamide (CTX) (Jiangsu Hengrui Medicine Co., Ltd.), 2 mg/day per mouse for two days. One day after the second cyclophosphamide injection, 1.5×10^7 of K562 cells were injected subcutaneously into the single armpit of each of the mice. The mice bearing K562 cell xenografts were divided randomly into nine groups (n=6, i.e., six mice in each group) and each of the mice was i.p. treated, respectively, with normal saline, PDCD5, IDR (Sigma Corporation), and IDR plus PDCD5. […] At the end of the experiment, mice were killed. The mice were the same batch of that of Example 6. The excised hearts of mice after treatment were fixed in 10% neutrally buffered formalin and then embedded in paraffin after dehydration. The paraffin embedding was cut and paraffin sections after HE staining were used to observe the myocardial congestion, hemorrhage, and myofiber degeneration of heart in mice.

mouse livers [2] = test: HE staining of liver paraffin sections of treated K562 xenograft mice; type: in vivo, BALB/c nu/nu mice
Protocol: as §1, with “excised liver” for “excised hearts”, “the necrosis of experimental mouse livers. Meanwhile, paraffin sections after Tunel (Roche Inc.) staining were used to observe the apoptosis of experimental mouse livers,” for “the myocardial congestion, hemorrhage,”, “and then the number” for “and myofiber degeneration”, “of apoptotic cells was counted” for “of heart”, “in five high-power microscope field for statistical analysis.” for “in mice.”

mouse bone marrow = test: HE staining of bone marrow paraffin sections of treated K562 xenograft mice; type: in vivo, BALB/c nu/nu mice; conditions: combination compared with IDR alone
Protocol: Methods: Cyclophosphamide (CTX) (Jiangsu Hengrui Medicine Co., Ltd.) was used for intraperitoneal injection in BALB/c nu/nu female mice (6-8 weeks of age) and injection lasted for two days. One day after the second cyclophosphamide injection, 1.5×10^7 of K562 cells were injected subcutaneously into the single armpit of the mice. The mice bearing K562 cell xenografts were divided randomly into nine groups (n=6, i.e., six mice in each group) and i.p. treated with normal saline, PDCD5, IDR (Sigma Corporation), and IDR plus PDCD5. Normal saline, PDCD5 (200 μg, 400 μg, or 800 μg, i.e., 10 mg/kg, 20 mg/kg, or 40 mg/kg), […]., 1.25 mg/kg) and […]., 1.25 mg/kg) plus PDCD5 (200 μg, 400 μg, or 800 μg, i.e., 10 mg/kg, 20 mg/kg, or 40 mg/kg) were used for intraperitoneal injection and were given every other day for a total of five treatments. […] At the end of the experiment, mice were killed. The mice were the same batch of that in Example 6. The excised bone of mice after treatment were fixed in 10% neutrally buffered formalin and then embedded in paraffin after dehydration. The paraffin embedding was cut and paraffin sections after HE staining were used to count the number of nucleated cells of each group in mouse bone marrow paraffin sections.

K562 cells [3] = test: clonogenic assay of agarose, IDR; type: cell-based; conditions: Homo sapiens, K562, 336 h; IDR 35 ng/mL; PDCD5 15-60 μg/mL where combined; 14 days; read-out: rate of clonogenic inhibition
Protocol: Clonogenic assay of agarose: Cell concentration was adjusted to 2.5×10^5 cell/mL. NS (control group) was prepared by taking 0.01 mL single-cell suspension, 0.5 mL 1% agarose, and 0.5 mL 2×RPMI 1640 medium containing 20% FCS, to bring the culture system to 1.0 mL. Test groups were prepared by taking 0.01 mL single-cell suspension and 0.5 mL 1% agarose, and taking IDR and PDCD5 diluted with 2×RPMI 1640 medium containing 20% FCS to an appropriated volume (having a final concentration of 35 ng/mL for IDR, and a final concentration of 15 μg/mL, 30 μg/mL, or 60 μg/mL for PDCD5 in each respective test group) and further diluted by adding 2×RPMI 1640 medium containing 20% FCS to 0.5 mL, and bringing the culture system to 1.0 mL. The culture system was added to 24-well plates, with 1 mL per well, and triplicate wells for each group. The plates were incubated in a CO2 incubator for 14 days until colonies formed. The clonogenic number was counted by microscope. A colony with more than 30 cells was counted as one positive colony.

K562 cells [4] = test: FITC/Annexin-V apoptosis by flow cytometry, IDR; type: cell-based; conditions: IDR 56 ng/mL; PDCD5 30 μg/mL where combined; 24 hours
Protocol: Methods: Cell staining with FITC/Annexin-V and cell apoptosis in vitro detection by flow cytometry: K562 cells (ATCC) were maintained in RPMI 1640 (Life Technologies, USA) supplemented with 10% FBS (Hyclone, USA), and were plated in 24-well culture dishes to a density of 2×10^5 cells/mL. rhPDCD5 protein was added with a final concentration of 7.5 μg/mL, 15 μg/mL and 30 μg/mL, respectively, in each well. Chemotherapeutic drug IDR was then added with a final concentration of 56 ng/mL and RPMI 1640 with 10% FBS was added to make the system to 1 mL. After 24 hours of co-culture, the cells were stained with FITC/Annexin-V (Baosai company) and apoptosis was detected by flow cytometry.

K562 cell xenografts = K562 cell xenografts in nude mice, IDR; type: in vivo, BALB/c nude mice; conditions: IDR 70 μg
Protocol: Methods: BALB/c nude female mice (6-8 weeks of age) were used, and the mice were pretreated by i.p. injections of cyclophosphamide (Jiangsu Hengrui Medicine Co., Ltd.) once daily at a dose of 2 mg per mouse for two consecutive days. After two days of the cyclophosphamide injection, 1.5×10^7 K562 cells were injected subcutaneously into the single flanks of the mouse. The mice bearing K562 cell xenografts were divided randomly into five groups: Normal saline, irrelevant protein, rhPDCD5, IDR (idarubicin, Sigma Company), and IDR plus rhPDCD5. IDR treatments were given every other day i.p. The longest diameter and shortest diameter of tumors were measured by vernier caliper at the beginning of treatment and during the treatment. […] At the end of the experiment, the mice were killed and tumor masses were dissected and then weighed. […] Tumor volume was calculated using the following formula: πls^2/6, where 1=long diameter and s=short diameter.

HEK293 cells [5] = test: PDCD5-FITC internalization, flow cytometry; type: cell-based; conditions: incubated at 4° C.
Protocol: Methods: HEK293 and U937 cells (ATCC) were maintained in RPMI 1640 (Life Technologies, USA), supplemented with 10% heat-inactivated fetal bovine serum (Hyclone, USA), penicillin (100 units/mL), streptomycin (100 μg/mL), and L-glutamine (2 mM). The HEK293 cells were adherent cells with expression of caveolin-1, while the U937 cells were suspension cells without expression of caveolin-1.
The purified rhPDCD5 protein from Example 2 was suspended into 0.025 M sodium carbonate-sodium bicarbonate buffer (pH 9.0). The rhPDCD5 protein was labeled (covalent) by fluorescein isothiocyanate (FITC, Sigma-Aldrich) as described by Masseyeff R. F. et al. (Methods Immunology Analysis 3, 237-238, 1993), and then purified by Sephadex G25 to remove free FITC to obtain PDCD5-FITC protein.
Results: Performance of Flow Cytometry: Quantification of internalized FITC-labeled PDCD5 recombinant protein: HEK293cells were plated in 24-well plates to about 70% confluence, […] FIG. 3. After incubation, the cells were then washed twice, trypsinized, centrifuged, again washed twice with PBS, and finally analyzed by flow cytometry using a FACSCalibur flow cytometer (BD Biosciences).

HEK293 cells [6] = test: intracellular localization of FITC-labeled PDCD5, fluorescence microscopy; type: cell-based; conditions: 20 μg/mL, 5 hours
Protocol: Analysis of intracellular localization of the FITC-labeled recombinant PDCD5 protein by fluorescence microscopy: HEK293 cells were grown in specialized glass-bottom microwell dishes (MatTek Corp., USA) to about 50% confluence and washed, and then fresh 10% fetal bovine serum medium and PDCD5-FITC was added to a final concentration of 20 μg/mL. At each time point shown in the drawing, the cells were rinsed twice with PBS buffer and fixed with 2% paraformaldehyde in PBS for 15 min at room temperature. Cells were imaged using a TCS-SP laser-scanning confocal microscope with a 40× or 63×oil immersion lenses (Leica Microsystems, Mannheim, Germany). Nuclei were visualized by Hoechst 33342 (red regions, a pseudocolor).

U937 cells = test: PDCD5-FITC internalization, flow cytometry; type: cell-based; conditions: incubated at 4° C.
[7] = no PDCD5, Imatinib 1.2 mg oral or IDR 25 μg i.p., n=6

CC(=O)[C@]1(O)Cc2c(O)c3c(c(O)c2[C@@H](O[C@H]2C[C@H](N)[C@H](O)[C@H](C)O2)C1)C(=O)c1ccccc1C3=O [IDR, idarubicin]
number of apoptotic cells in mice liver, IDR alone vs IDR combined with PDCD5 (mouse livers [1]): significantly higher | myocardial hemorrhage and congestion, and myofiber fracture/degeneration (in words) (mice hearts; HE staining): significant | Myocardial hemorrhage and congestion: mice graded + (mice hearts; [7]): 3 number of mice | Myocardial hemorrhage and congestion: mice graded ++ (mice hearts; [7]): 3 number of mice | Myocardial hemorrhage and congestion: mice graded − (mice hearts; [7]): 0 number of mice | Myofiber degeneration: mice graded + (mice hearts; [7]): 3 number of mice | Myofiber degeneration: mice graded − (mice hearts; [7]): 3 number of mice | sinusoidal expansion, congestive hemorrhage and necrosis of liver cells surrounding sinusoid (in words) (mouse livers [2]; HE staining): significant | Sinusoidal expansion, congestive hemorrhage and necrosis of liver cells surrounding sinusoid: mice graded + (mouse livers [2]; [7]): 3 number of mice | Sinusoidal expansion, congestive hemorrhage and necrosis of liver cells surrounding sinusoid: mice graded ++ (mouse livers [2]; [7]): 3 number of mice | Sinusoidal expansion, congestive hemorrhage and necrosis of liver cells surrounding sinusoid: mice graded +/− (mouse livers [2]; [7]): 0 number of mice | Sinusoidal expansion, congestive hemorrhage and necrosis of liver cells surrounding sinusoid: mice graded − (mouse livers [2]; [7]): 0 number of mice | number of mouse bone marrow nucleated cells (mouse bone marrow): decreased | inhibition at 0.035 µg/mL (K562 cells [3]): 35.5% | cell apoptosis rate (K562 cells [4]): 22.57% | tumor inhibitory rate (K562 cell xenografts; PDCD5 local (intratumoral) injection, 60 μg where combined): 60.27% | tumor inhibitory rate (K562 cell xenografts; treatment started at average tumor volume 57.7 mm^3, PDCD5 i.p. 800 μg where combined): 62.79%

B1: PDCD5-FITC: rhPDCD5 protein covalently labeled by fluorescein isothiocyanate (conjugate, UniProt O14737 2-125, looked up)
Programmed cell death protein …: ADEELEALRRQRLAELQAKHGDPGDAAQQEAKHREAEMRNSILAQVLDQSARARLSNLALVKPEKTKAVENYLIQMARYGQLSEKVSEQGLIEILKKVSQQTEKTTTVKFNRRKVMDSDEDDDY
modifications: FITC label
notes: rhPDCD5 protein covalently labeled by fluorescein isothiocyanate
internalization (uptake) at 4° C. (HEK293 cells [5]): blocked; also recorded: inhibited | intracellular localization of fluorescence (HEK293 cells [6]): localized to discrete compartments in the cytoplasm | internalization (uptake) at 4° C. (U937 cells): blocked; also recorded: inhibited
